{"source": "patent US20260158014A1", "about": "“METHODS OF ADMINISTERING VOXELOTOR” (Global Blood Therapeutics, Inc., priority 2021, published 2026)", "key": {"pregnant rats [1]": {"test_system": "pregnant rats", "test": "Pre- and postnatal development study in rats", "format": "in vivo, rat", "protocol": "In a pre- and postnatal development study, voxelotor was administered orally to pregnant rats at 15, 50 and 250 mg/kg/day (gestation day 6 through lactation day 20). Maternal gestational body weights were decreased at 250 mg/kg/day, which continued to the end of lactation."}, "[2]": {"test": "Probe-substrate DDI study: voxelotor exposure and safety in healthy subjects", "format": "in vivo, human", "protocol": "(§1) The effect of voxelotor on the pharmacokinetics (PK) of a single dose of caffeine, warfarin sodium, omeprazole, and midazolam hydrochloride, which are probe substrates for cytochrome P450 (CYP)1A2, CYP2C9, CYP2C19, and CYP3A4, respectively, were studied in healthy subjects. During Period 1, subjects received a single dose of caffeine 100 mg, warfarin sodium 10 mg+vitamin K 10 mg, omeprazole 20 mg, and midazolam hydrochloride 2 mg on Day 1. During Period 2, subjects received voxelotor 900 mg QD on Days 1 and 2 followed by 600 mg QD on Day 3, a single dose of caffeine 100 mg, warfarin sodium 10 mg+vitamin K 10 mg, omeprazole 20 mg, and midazolam hydrochloride 2 mg on Day 4, and voxelotor 600 mg QD on Days 4 through 7.\n(§2) Whole blood and plasma concentrations of voxelotor and plasma concentrations of caffeine, paraxanthine, S-warfarin, omeprazole, 5-hydroxyomeprazole, midazolam, and 1-hydroxymidazolam were determined using validated assays."}, "[3]": {"test": "Clinical pharmacokinetics after oral administration", "format": "in vivo, human"}, "[4]": {"test_system": "patients with SCD aged 4 to 11 years", "test": "Open-label Phase 2 trial (part C): Hb response and hemolysis markers", "format": "in vivo, human", "description": "Patients and treatment: Patients with SCD were screened at 15 study sites in the United States, Lebanon, and the United Kingdom. Key inclusion criteria included patients with SCD (homozygous sickle cell disease [HbSS] or HbSβ^0 genotypes), aged 4 to 11 years, and with hemoglobin (Hb) concentrations ≤10.5 g/dL at baseline. Concomitant hydroxyurea was allowed if the dose was stable for ≥3 months at enrollment, with no anticipated need for dose adjustment during the study. There was no eligibility requirement regarding prior VOCs. Patients who were receiving chronic red blood cell transfusion therapy, had received a transfusion in the past 30 days, or had been hospitalized for a VOC, acute chest syndrome, splenic sequestration crisis, or dactylitis within 14 days before providing informed consent were excluded.\nAll patients received dispersible voxelotor tablets. Patients aged 4 to 11 years received once-daily voxelotor weight-based-dosing (Table 1).\n(§3) Statistical analyses: All efficacy and safety assessments were summarized with descriptive statistics. Population PK analyses using nonlinear mixed-effects modeling were performed to characterize voxelotor PK in plasma and whole blood.\nPatients 4 to <12 years received tablets for oral suspension based on body weight at baseline. OXBRYTA doses of 600 mg, 900 mg, or 1,500 mg once daily were administered to patients weighing 10 kg to <20 kg, 20 kg to <40 kg, or ≥40 kg, respectively. Patients 12 to <17 years received OXBRYTA 1,500 mg once daily.\nPatients were included if their baseline hemoglobin (Hb) was <10.5 g/dL. Eligible patients on stable doses of hydroxyurea for at least 90 days were allowed to continue hydroxyurea therapy throughout the study.\nEfficacy was based on Hb response rate, which is defined as a Hb increase of >1 g/dL from baseline to Week 24."}, "[5]": {"test": "PK in patients with HbSC genotype", "format": "in vivo, human"}, "CYP2C19": {"target": "T1, CYP2C19 (Homo sapiens, UniProt P33261)", "T1 construct": "endogenous in cells; host or cells: healthy human subjects (in vivo)", "T1 sequence (P33261 whole entry)": "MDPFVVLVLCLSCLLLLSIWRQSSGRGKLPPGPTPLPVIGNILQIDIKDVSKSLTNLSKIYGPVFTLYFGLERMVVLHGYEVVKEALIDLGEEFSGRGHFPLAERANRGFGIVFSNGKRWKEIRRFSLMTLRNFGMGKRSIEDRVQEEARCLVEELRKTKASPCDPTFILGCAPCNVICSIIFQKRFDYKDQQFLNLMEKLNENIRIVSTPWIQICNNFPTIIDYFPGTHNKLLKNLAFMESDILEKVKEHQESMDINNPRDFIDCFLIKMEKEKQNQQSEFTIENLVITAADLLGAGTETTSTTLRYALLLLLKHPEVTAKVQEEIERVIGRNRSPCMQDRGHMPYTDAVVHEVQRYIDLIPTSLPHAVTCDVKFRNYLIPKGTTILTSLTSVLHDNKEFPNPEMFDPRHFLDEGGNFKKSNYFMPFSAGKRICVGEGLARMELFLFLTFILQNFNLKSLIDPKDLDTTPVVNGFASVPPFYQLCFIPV", "test": "Clinical probe-substrate DDI study: omeprazole", "format": "in vivo", "protocol": "as §1, §2"}, "[6]": {"test": "Population PK modeling of voxelotor in patients aged 4 to 11 years (part C)", "format": "in vivo, human", "conditions": "4-11 years, n=38; for % of patients with ≥20% Hb occupancy / % Hb occupancy: weight-based dosing; for % Hb occupancy: geometric mean (% CV) in Table 3", "protocol": "Population PK modeling was used to determine the whole-blood and plasma PK parameters of voxelotor in the study population. The PK parameters included maximum whole blood or plasma concentration (Cmax), area under the concentration-time curve (AUC), terminal elimination half-life (t1/2), and percent Hb occupancy.\nas §3"}, "pregnant rats [7]": {"test_system": "pregnant rats", "test": "Embryo-fetal development study in rats", "format": "in vivo, rat", "conditions": "oral 15, 50, 250 mg/kg/day, gestation days 7 through 17", "protocol": "In embryo-fetal development studies, voxelotor was administered orally to pregnant rats at 15, 50, and 250 mg/kg/day (gestation days 7 through 17) and rabbits at 25, 75, and 150 mg/kg/day (gestation days 7 through 19) through organogenesis."}, "[8]": {"conditions": "4 to 11 years, weight-based dosing"}}, "note": "Entries after “also recorded” stand apart in the source; their conditions may differ.", "data": [{"smiles": "CC(C)n1nccc1-c1ncccc1COc1cccc(O)c1C=O", "note": "[voxelotor, 2-hydroxy-6-((2-(1-isopropyl-1H-pyrazol-5-yl)pyridin-3-yl)methoxy)benzaldehyde]", "values": [{"measurement": "maternal gestational body weights", "setting": "pregnant rats [1]; 250 mg/kg/day, gestation day 6 through lactation day 20", "result": "decreased"}, {"measurement": "findings in offspring", "setting": "pregnant rats [1]; maternal dose 250 mg/kg/day", "result": "reduced survival and reduced body weights"}, {"measurement": "exposure at 250 mg/kg/day relative to exposure in patients at recommended dose", "setting": "pregnant rats [1]; maternal dose with offspring effects", "result": "approximately 2.8 times"}, {"measurement": "safety and tolerability alone and with probe substrates", "setting": "[2]", "result": "safe and well tolerated"}, {"measurement": "time to steady-state after repeated administration", "setting": "[3]; patients with SCD", "result": "≤ 8", "unit": "days"}, {"measurement": "dose linearity of PK", "setting": "[3]; single or multiple doses, whole blood, plasma, RBCs", "result": "linear"}, {"measurement": "mean change in Hb from baseline at week 24", "setting": "[4]; 4 to 11 years, once-daily weight-based 600/900/1500 mg dispersible tablets, n=34", "result": 1.0, "unit": "g/dL"}, {"measurement": "patients with Hb response (>1.0 g/dL increase from baseline) at week 2", "setting": "[4]; [8]", "result": 54.5, "unit": "%"}, {"measurement": "patients with an increase in Hb of any magnitude from baseline at week 24", "setting": "[4]; [8]", "result": 82, "unit": "%"}, {"measurement": "patients with >2.0 g/dL increase in Hb from baseline at week 24", "setting": "[4]; 4 to 11 years, weight-based dosing, n=7/34", "result": 21, "unit": "%"}, {"measurement": "patients with >1.5 g/dL increase in Hb from baseline at week 24", "setting": "[4]; 4 to 11 years, weight-based dosing, n=12/34", "result": 35, "unit": "%"}, {"measurement": "patients with Hb response (increase >1.0 g/dL from baseline) at week 24", "setting": "[4]; 4 to 11 years, weight-based dosing, n=34", "result": 47.1, "unit": "%"}, {"measurement": "Hb response rate (Hb increase >1 g/dL from baseline to Week 24)", "setting": "[4]; patients 4 to <12 years who took at least one dose (16/45)", "result": 36, "unit": "%"}, {"measurement": "mean percent change from baseline in indirect bilirubin", "setting": "[4]; week 24, n=28", "result": "−38.6", "unit": "%"}, {"measurement": "mean percent change from baseline in percent reticulocyte count", "setting": "[4]; week 24, n=31", "result": "−3.25", "unit": "%"}, {"measurement": "mean percent change from baseline in lactate dehydrogenase", "setting": "[4]; week 24, n=32", "result": "−2.6", "unit": "%"}, {"measurement": "steady state whole blood AUC higher in HbSC vs HbSS genotype", "setting": "[5]; HbSC n=11, HbSS n=220", "result": 50, "unit": "%"}, {"measurement": "steady state whole blood Cmax higher in HbSC vs HbSS genotype", "setting": "[5]; HbSC n=11, HbSS n=220", "result": 45, "unit": "%"}, {"measurement": "steady state plasma AUC higher in HbSC vs HbSS genotype", "setting": "[5]; human, in vivo", "result": 23, "unit": "%"}, {"measurement": "steady state plasma Cmax higher in HbSC vs HbSS genotype", "setting": "[5]; human, in vivo", "result": 15, "unit": "%"}, {"measurement": "effect of voxelotor on PK of CYP2C19 probe substrate omeprazole", "setting": "CYP2C19; healthy subjects, voxelotor 900/600 mg QD, omeprazole 20 mg", "result": "no clinically meaningful effect"}, {"measurement": "CYP2C19 inhibition in vivo", "setting": "CYP2C19; human, in vivo", "result": "not"}, {"measurement": "% of patients with ≥20% Hb occupancy", "setting": "[6]", "result": "Approximately 76%"}, {"measurement": "% of patients with ≥20% Hb occupancy", "setting": "[6]; listed as Voxelotor", "result": 76.3, "unit": "%"}, {"measurement": "% Hb occupancy", "setting": "[6]", "result": 26, "unit": "%"}, {"measurement": "% Hb occupancy", "setting": "[6]; listed as Voxelotor", "result": "26.16 (32.2) %"}, {"measurement": "Cmax", "setting": "[6]; human, whole blood, oral, geometric mean (% CV), 600/900/1500 mg weight-based", "result": 148, "unit": "µg/mL"}, {"measurement": "AUC(0-t)", "setting": "[6]; human, whole blood, oral, geometric mean (% CV), 600/900/1500 mg weight-based, read-out: AUC0-24 h, whole blood", "result": 3260, "unit": "µg·h/mL"}, {"measurement": "half-life", "setting": "[6]; human, whole blood, oral, geometric mean (% CV), read-out: t1/2, whole blood (converted)", "result": 1630, "unit": "min"}, {"measurement": "developmental outcome", "setting": "pregnant rats [7]", "result": "no adverse developmental effects; also recorded: no evidence of adverse developmental outcomes"}]}]}
